The test relates to lashes and adjacent hairs of the eyelids. Description: Observation of lash and hair growth in glaucoma patients treated with bimatoprost in only one eye. It counts as in vivo, human. The text has this: In the course of treating patients having glaucoma, treatment may only be appropriate in one eye. […] The lash appearance on the lids of the treated eyes would have appeared quite attractive if it represented a bilateral phenomenon. As a result of its asymmetric nature, the long lashes on one side could be construed as disturbing from a cosmetic standpoint. A systemic examination was preformed as a result of the asymmetric phenomenon. It soon became apparent that this altered appearance was not an isolated finding.
The changes in the lashes were apparent on gross inspection in several patients once attention was focused on the issue. In those with light colored hair and lashes, the differences were only seen easily with the aid of the high magnification and lighting capabilities of the slit lamp biomicroscope. In the course of glaucoma follow-up examination, attention is generally immediately focused on the eye itself. As a result of the high power magnification needed only one eye is seen at a time and the eye is seen at a high enough power that the lashes are not in focus. At these higher powers, any lash asymmetry between the two eyes is not likely to be noticed except by careful systematic comparison of the lashes and adjacent hairs of the eyelids of the two eyes.
Observed parameters leading to the conclusion that more robust hair growth occurred in the treatment area following administration of the prostaglandin analogue were multiple. They included increased length of lashed, increased number of lashes along the normal lash line, increased thickness and luster of lashes, increased auxiliary lash-like terminal hair in transitional areas adjacent to areas of normal lash growth, increased auxiliary lash-like terminal hairs at the medial and lateral canthal area, increased pigmentation of the lashes, increased numbers, increased length, as well as increased luster, and thickness of fine hair on the skin of the adjacent lid, and finally, increased perpendicular angulation of lashes and lash-like terminal hairs.

SMILES strings stand for the structures.

`CCNC(=O)CCC/C=C\C[C@@H]1[C@@H](/C=C/[C@@H](O)CCc2ccccc2)[C@H](O)C[C@@H]1O` [bimatoprost]: for the setting “a glaucoma patient treated in one eye only”, the “lash appearance in the treated eye versus the non-treated eye” value was “longer, thicker, and fuller in the treated eye than in the non-treated eye”. Also, the “differences in the lashes and adjacent hairs of the treated side” value (all patients taking the drug on a unilateral basis for longer than 6 months) is reported as “Definite differences could be identified to varying degrees”. Also, the “hair growth in treated versus control areas, multiple parameters of hair appearance” value (many subjects, length, number, thickness, luster, pigmentation, angulation of lashes) is listed as “hair growth is stimulated”.

Values taken from patent US7786117B2, “Therapeutic substituted thiazolidinones, oxazolidinones, and related compounds” (Allergan, Inc., priority 2008, dated 2010).
